Data reported in article PMC10796475, “Immobilization of Thermoplasma acidophilum Glucose Dehydrogenase and Isocitrate Dehydrogenase Through Enzyme-Inorganic Hybrid Nanocrystal Formation” (Current Microbiology, 2024).

How the values were obtained:
[1] = biological target: T1, TaIDH (T. acidophilum isocitrate dehydrogenase) (Thermoplasma acidophilum, UniProt Q9HLV8); assay: NADPH formation at […] nm, initial rate (oxidative decarboxylation); format: biochemical; conditions: free enzyme; NADP+ 0.2 mM, MgCl2 0.4 mM; HEPES-NaOH pH 6.5, 37 °C; partially purified
T1 construct: gene Ta0117; pET21b(+) in E. coli BL21(DE3)pLysS; partially purified by heat treatment (60 °C, 15 min)
T1 sequence (Q9HLV8 1-405): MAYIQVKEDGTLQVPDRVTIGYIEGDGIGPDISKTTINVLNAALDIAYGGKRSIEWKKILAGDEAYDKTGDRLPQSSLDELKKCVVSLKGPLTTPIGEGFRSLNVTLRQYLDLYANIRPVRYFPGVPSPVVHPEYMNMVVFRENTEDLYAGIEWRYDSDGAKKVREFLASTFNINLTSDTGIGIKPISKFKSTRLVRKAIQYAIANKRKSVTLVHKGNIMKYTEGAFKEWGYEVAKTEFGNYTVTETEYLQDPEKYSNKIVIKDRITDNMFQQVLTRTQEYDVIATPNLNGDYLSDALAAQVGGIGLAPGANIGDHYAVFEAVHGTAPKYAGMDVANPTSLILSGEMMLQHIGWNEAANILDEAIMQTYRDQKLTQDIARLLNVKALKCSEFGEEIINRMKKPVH

[2] = biological target: T2, TaGDH (Thermoplasma acidophilum glucose dehydrogenase) (Thermoplasma acidophilum, UniProt P13203); assay: NADPH formation at […] nm, initial rate; format: biochemical; conditions: free enzyme; NADP+ 0.2 mM; HEPES-NaOH pH 6.5, 37 °C; partially purified
T2 construct: gene gdh; pET21b(+) in E. coli Rosetta(DE3)pLysS; partially purified by heat treatment (60 °C, 15 min)
T2 sequence (P13203 2-361): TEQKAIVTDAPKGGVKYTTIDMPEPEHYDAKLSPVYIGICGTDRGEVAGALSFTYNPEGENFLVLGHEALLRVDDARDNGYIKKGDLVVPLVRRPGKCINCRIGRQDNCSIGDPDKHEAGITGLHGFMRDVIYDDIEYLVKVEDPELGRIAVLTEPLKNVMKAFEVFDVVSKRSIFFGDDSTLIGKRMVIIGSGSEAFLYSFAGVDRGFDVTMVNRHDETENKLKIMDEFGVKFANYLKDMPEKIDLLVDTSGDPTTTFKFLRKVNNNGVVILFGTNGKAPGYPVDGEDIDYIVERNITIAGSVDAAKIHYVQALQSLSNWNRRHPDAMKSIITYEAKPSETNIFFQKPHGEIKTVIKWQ

| SMILES | NADPH formation at 340 nm, initial rate (oxidative decarboxylation) [1] | NADPH formation at 340 nm, initial rate [2] |
| --- | --- | --- |
| O=C(O)CC(C(=O)O)C(O)C(=O)O (racemic) [DL-isocitric acid] | NADPH released by the decarboxylation and oxidation of DL-isocitric acid per minute |  |
| OC[C@H]1OC(O)[C@H](O)[C@@H](O)[C@@H]1O (stereo partly drawn) [D-glucose] |  | micromoles of NADPH released by the oxidation of glucose per minute |
